Patent publication US11014934B2, “Antiseptic drug” (AO “TATKHIMFARMPREPARATY”, priority 2017, dated 2021)

Assays:
Type in all cases: cell-based
Rh. Oryzae = test: Sensitivity of microscopic fungi in solution (colonies after exposure); details: exposure 1 min, 0.1% solution
Protocol: For the preparation of inoculum, were respectively used pure (2-5) days cultures of yeast and mycelial fungi, grown on Saburo's dense nutrient broth. Inoculum for plating was prepared in different ways, depending on the type of fungi. Thus, yeast crops (C. albicans) were prepared by washing the culture from an agar stroke. Cultures of mycelial fungi (Rh. oryzae, Asp. fumigatus) were pre-degraded in a pounder. A suspension of microorganisms was prepared in a sterile isotonic sodium chloride solution, bringing the inoculum density to 5 UNITS (GISK [State Research Institute of Standardization and Control] named after L. A. Tarasevich) or according to the McFarland standard 1 UNIT with a concentration of at least 1×10^6 CFU/ml, considering that the size of the fungal elements is approximately 10 times the size of bacteria (this provided the possibility of creating a mixture of biocide with suspension, the concentration of microorganisms of the order of 1×10^5 CFU/ml).
Solutions of compound I, miramistin, and benzalkonium chloride in working concentrations (0.1%, 0.2%, 0.3%) were poured into sterile 0.9 ml tubes. 0.1 ml of microbial suspension was added to test tubes with disinfectant solutions and mixed by shaking for several seconds. The exposition lasted for 1, 5, and 15 minutes. After required temporary exposure for action of the disinfectant, 0.5 ml of the neutralizer solution was added and mixed by shaking.
Then, 0.1 ml of the mixture was inoculated on a dense nutrient medium and the plates with inoculate were placed in a thermostat with a temperature of 27° C. for (2-4) days for yeast and (5-7) days for mycelial fungi, respectively.
After the time required for the cultivation of microorganisms of this species, the results were counted according to the number of colonies grown on the Petri dish. In the absence of growth, the time for culturing microorganisms was increased by a factor of 2. The grown colonies were subjected to microscopy.
The tested substances were studied on clinical and archival strains of yeast and mycelial fungi. As comparison drugs, drugs commonly used in clinical practice were used: miramistin and benzalconium chloride. After the required exposure time for action of the disinfectant, a series of 0.1 ml mixture was aseptically plated on the surface of a dense nutrient medium in Petri dishes. After the time of cultivation of microorganisms, the results were counted according to the number of colonies grown on the Petri dish.

[1] = test system: Escherichia coli CDC F-50; test: Disinfectant activity in suspension test
Protocol: (§1) To prepare a bacterial suspension of the culture, microorganisms grown in dense nutrient medium for (18-24) hours were washed off with a sterile isotonic sodium chloride solution. The bacterial suspension of each microorganism was brought to a turbidity corresponding to a concentration of 1×10^9 cells/ml, which corresponds to 3 units of McFarland. For experiments with protein loading, a solution of bovine serum albumin (BSA) was added to the bacterial suspension to a final concentration of 0.2%.
(§2) Solutions of compound I, miramistin, and benzalkonium chloride were poured at a working concentration (0.1%, 0.2%) into a 24-well plate of 0.9 ml per well: 0.1 ml of microbial suspension was added to wells with disinfectant solutions and mixed by shaking for several seconds.
(§3) At the end of 1, 5, and 15 minutes of exposure, 0.5 ml of a universal neutralizer was added and mixed by shaking to deactivate the drugs and stop their antimicrobial activity. The neutralizer consisted of tween-80 (Sigma-Aldrich)—3.0 ml, saponin (DIAEM)—3.0 g, histidine—0.1 g, cysteine—0.1 g in 100 ml of phosphate-buffered solution.
(§4) The liquid was inoculated on a dense nutrient medium (Müller-Hinton agar) in 0.1 ml of the mixture, cultivation was carried out (24-48) hours at 37° C. Müller-Hinton broth was prepared from dry media (Mueller Hinton broth, Acumedia, Baltimore), cultivation was carried out on agarized Müller-Hinton broth, which included an additional 2% of agar. The media were autoclaved at 121° C. for 15 minutes.
(§5) After the time required for the cultivation of microorganisms, the results were counted according to the number of colonies grown on the Petri dish. In the absence of growth, the time for culturing microorganisms was increased by a factor of 2 (for example, when the cultivation time was 24 hours, it was left in the thermostat for up to 2 days). The experiment was carried out three times under the same conditions.
(§6) The criterion of efficacy of drugs in suspension is the death of 100% test microorganisms, with a duration of action not more than 30 minutes.

[2] = test system: Staphylococcus aureus ATCC 209p; test: Disinfectant activity in suspension test
Protocol: as §1, §2, §3, §4, §5, §6

[3] = 0.1% solution, exposure 1 min, +BSA
[4] = 0.1% solution, exposure 1 min, −BSA
[5] = 0.1% solution, exposure 5 min, +BSA
[6] = 0.1% solution, exposure 5 min, −BSA
[7] = 0.1% solution, exposure 15 min, +BSA
[8] = 0.1% solution, exposure 15 min, −BSA
[9] = 0.2% solution, exposure 1 min, +BSA
[10] = 0.2% solution, exposure 1 min, −BSA
[11] = 0.2% solution, exposure 5 min, +BSA
[12] = 0.2% solution, exposure 5 min, −BSA
[13] = 0.2% solution, exposure 15 min, +BSA
[14] = 0.2% solution, exposure 15 min, −BSA

alkyldimethyl(phenylmethyl) ammonium chloride [Benzalconium chloride]
Number of colonies grown in a Petri dish (Rh. Oryzae): 1 | Inhibition rate (M ± SD) of Escherichia coli CDC F-50 growth [1, 3]: 99.99 ± 0.005% | Inhibition rate (M ± SD) of Escherichia coli CDC F-50 growth [1, 4]: 99.99% | Inhibition rate (M ± SD) of Escherichia coli CDC F-50 growth [1, 5]: 99.99 ± 0.005% | Inhibition rate (M ± SD) of Escherichia coli CDC F-50 growth [1, 6]: 99.99 ± 0.005% | Inhibition rate (M ± SD) of Escherichia coli CDC F-50 growth [1, 7]: 100% | Inhibition rate (M ± SD) of Escherichia coli CDC F-50 growth [1, 8]: 100% | Inhibition rate (M ± SD) of Escherichia coli CDC F-50 growth [1, 9]: 99.99 ± 0.005% | Inhibition rate (M ± SD) of Escherichia coli CDC F-50 growth [1, 10]: 99.99 ± 0.005% | Inhibition rate (M ± SD) of Escherichia coli CDC F-50 growth [1, 11]: 100% | Inhibition rate (M ± SD) of Escherichia coli CDC F-50 growth [1, 12]: 99.99 ± 0.005% | Inhibition rate (M ± SD) of Escherichia coli CDC F-50 growth [1, 13]: 100% | Inhibition rate (M ± SD) of Escherichia coli CDC F-50 growth [1, 14]: 100% | Inhibition rate (M ± SD) Staphylococcus aureus ATCC 209p [2, 3]: 99.99% | Inhibition rate (M ± SD) Staphylococcus aureus ATCC 209p [2, 4]: 99.99% | Inhibition rate (M ± SD) Staphylococcus aureus ATCC 209p [2, 5]: 99.99% | Inhibition rate (M ± SD) Staphylococcus aureus ATCC 209p [2, 6]: 99.99% | Inhibition rate (M ± SD) Staphylococcus aureus ATCC 209p [2, 7]: 99.99 ± 0.005% | Inhibition rate (M ± SD) Staphylococcus aureus ATCC 209p [2, 8]: 99.99 ± 0.005% | Inhibition rate (M ± SD) Staphylococcus aureus ATCC 209p [2, 9]: 100% | Inhibition rate (M ± SD) Staphylococcus aureus ATCC 209p [2, 10]: 100% | Inhibition rate (M ± SD) Staphylococcus aureus ATCC 209p [2, 11]: 100% | Inhibition rate (M ± SD) Staphylococcus aureus ATCC 209p [2, 12]: 100% | Inhibition rate (M ± SD) Staphylococcus aureus ATCC 209p [2, 13]: 100% | Inhibition rate (M ± SD) Staphylococcus aureus ATCC 209p [2, 14]: 100%
